Assays:
BRD4 BD2 = target: T1, BRD4 BD2 (Homo sapiens, UniProt O60885); test: AlphaScreen binding assay, BRD4 Bromodomain 2
T1 construct: made in house
Method in brief: (§1)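 Compound dilution series were mixed with His-tagged BRD4 bromodomain and biotinylated tetra-acetylated H4 (1-21) peptide at pH 7.3 (BD1 and peptide at 50 nM, BD2 and peptide at 100 nM). Donor and acceptor beads were then added, and plates were equilibrated at least 1 h before reading. IC50 values were fitted with a four-parameter logistic model.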

BRD4 BD1 = target: T2, BRD4 BD1 (Homo sapiens, UniProt O60885); test: AlphaScreen binding assay, BRD4 Bromodomain 1
T2 construct: made in house
Method in brief: as §1

MV4-11 cells = test: Oncology cell growth assay (3-day proliferation, CellTiter-Glo); format: cell-based; settings: Homo sapiens, MV4-11, 72 h, AML cell line MV4-11, 72 hours, compounds grouped by IC50 range, read-out: MV4-11 IC50 (inhibition of proliferation, gIC50)
Method in brief: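 Compounds were serially diluted 3-fold in DMSO, giving final well concentrations from 10 down to 0.0045 μM. MV4-11 cells were then seeded at 3000 cells/well in RPMI 1640 with 10% FBS and incubated 72 hours. CellTiter-Glo signal was measured and gIC50 obtained by four-parameter logistic regression.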

CC(=O)N1c2ccc(-c3cccc(S(C)(=O)=O)c3)cc2N(C(=O)OC2CCCCC2)C[C@@H]1C [Example I-1225]
IC50 (BRD4 BD2): 50 to 500 nM | IC50 (BRD4 BD1): 100 to 1000 nM | IC50 (MV4-11 cells): 100 to 500 nM

CC(=O)N1c2ccc(-c3cccc(S(C)(=O)=O)c3)cc2N(C(=O)OC2CCOCC2)C[C@@H]1C [Example I-1226]
IC50 (BRD4 BD2): 50 to 500 nM | IC50 (BRD4 BD1): 100 to 1000 nM | IC50 (MV4-11 cells): > 500 nM

CCS(=O)(=O)Nc1cccc(-c2ccc3c(c2)N(C(=O)OC2CCCCC2)C[C@H](C)N3C(C)=O)c1 [Example I-1227]
IC50 (BRD4 BD2): 50 to 500 nM | IC50 (BRD4 BD1): 100 to 1000 nM | IC50 (MV4-11 cells): 100 to 500 nM

CCS(=O)(=O)Nc1cccc(-c2ccc3c(c2)N(C(=O)OC2CCOCC2)C[C@H](C)N3C(C)=O)c1 [Example I-1228]
IC50 (BRD4 BD2): 50 to 500 nM | IC50 (BRD4 BD1): 100 to 1000 nM | IC50 (MV4-11 cells): 100 to 500 nM

CC(=O)N1c2ccc(-c3ccc(N4CCOCC4)cc3)cc2N(C(=O)OC2CCCCC2)C[C@@H]1C [Example I-1229]
IC50 (BRD4 BD2): 50 to 500 nM | IC50 (BRD4 BD1): 100 to 1000 nM | IC50 (MV4-11 cells): 100 to 500 nM

CC(=O)N1c2ccc(-c3ccc(N4CCOCC4)cc3)cc2N(C(=O)OC2CCOCC2)C[C@@H]1C [Example I-1230]
IC50 (BRD4 BD2): 50 to 500 nM | IC50 (BRD4 BD1): 100 to 1000 nM | IC50 (MV4-11 cells): 100 to 500 nM

CC(=O)N1c2ccc(-c3ccc(S(=O)(=O)C(C)C)cc3)cc2N(C(=O)OC2CCCCC2)C[C@@H]1C [Example I-1231]
IC50 (BRD4 BD2): 50 to 500 nM | IC50 (BRD4 BD1): 100 to 1000 nM | IC50 (MV4-11 cells): 100 to 500 nM

CC(=O)N1c2ccc(-c3ccc(S(=O)(=O)C(C)C)cc3)cc2N(C(=O)OC2CCOCC2)C[C@@H]1C [Example I-1232]
IC50 (BRD4 BD2): 50 to 500 nM | IC50 (BRD4 BD1): 100 to 1000 nM | IC50 (MV4-11 cells): 100 to 500 nM

CC(=O)N1c2ccc(-c3ccc(S(N)(=O)=O)cc3)cc2N(C(=O)OC2CCCCC2)C[C@@H]1C [Example I-1233]
IC50 (BRD4 BD2): 50 to 500 nM | IC50 (BRD4 BD1): 100 to 1000 nM | IC50 (MV4-11 cells): 100 to 500 nM

CC(=O)N1c2ccc(-c3ccc(S(N)(=O)=O)cc3)cc2N(C(=O)OC2CCOCC2)C[C@@H]1C [Example I-1234]
IC50 (BRD4 BD2): 50 to 500 nM | IC50 (BRD4 BD1): 100 to 1000 nM | IC50 (MV4-11 cells): 100 to 500 nM

CCCS(=O)(=O)c1ccc(-c2ccc3c(c2)N(C(=O)OC2CCCCC2)C[C@H](C)N3C(C)=O)cc1 [Example I-1235]
IC50 (BRD4 BD2): 50 to 500 nM | IC50 (BRD4 BD1): 100 to 1000 nM | IC50 (MV4-11 cells): 100 to 500 nM

CCCS(=O)(=O)c1ccc(-c2ccc3c(c2)N(C(=O)OC2CCOCC2)C[C@H](C)N3C(C)=O)cc1 [Example I-1236]
IC50 (BRD4 BD2): 50 to 500 nM | IC50 (BRD4 BD1): 100 to 1000 nM | IC50 (MV4-11 cells): 100 to 500 nM

CC(=O)N1c2ccc(-c3ccc(S(=O)(=O)CC4CC4)cc3)cc2N(C(=O)OC2CCCCC2)C[C@@H]1C [Example I-1237]
IC50 (BRD4 BD2): 50 to 500 nM | IC50 (BRD4 BD1): 100 to 1000 nM | IC50 (MV4-11 cells): 100 to 500 nM

CC(=O)N1c2ccc(-c3ccc(S(=O)(=O)CC4CC4)cc3)cc2N(C(=O)OC2CCOCC2)C[C@@H]1C [Example I-1238]
IC50 (BRD4 BD2): 50 to 500 nM | IC50 (BRD4 BD1): 100 to 1000 nM | IC50 (MV4-11 cells): > 500 nM

CC(=O)N1c2ccc(-c3ccc(S(=O)(=O)CC(C)C)cc3)cc2N(C(=O)OC2CCCCC2)C[C@@H]1C [Example I-1239]
IC50 (BRD4 BD2): 50 to 500 nM | IC50 (BRD4 BD1): 100 to 1000 nM | IC50 (MV4-11 cells): 100 to 500 nM

CC(=O)N1c2ccc(-c3ccc(S(=O)(=O)CC(C)C)cc3)cc2N(C(=O)OC2CCOCC2)C[C@@H]1C [Example I-1240]
IC50 (BRD4 BD2): 50 to 500 nM | IC50 (BRD4 BD1): 100 to 1000 nM | IC50 (MV4-11 cells): 100 to 500 nM

CC(=O)N1c2ccc(-c3ccc(S(C)(=O)=O)c(F)c3)cc2N(C(=O)OC2CCCCC2)C[C@@H]1C [Example I-1241]
IC50 (BRD4 BD2): 50 to 500 nM | IC50 (BRD4 BD1): 100 to 1000 nM | IC50 (MV4-11 cells): 100 to 500 nM

CC(=O)N1c2ccc(-c3ccc(S(C)(=O)=O)c(F)c3)cc2N(C(=O)OC2CCOCC2)C[C@@H]1C [Example I-1242]
IC50 (BRD4 BD2): 50 to 500 nM | IC50 (BRD4 BD1): 1000 to 10000 nM | IC50 (MV4-11 cells): > 500 nM

CC(=O)N1c2ccc(-c3cccc(S(=O)(=O)C4CC4)c3)cc2N(C(=O)OC2CCCCC2)C[C@@H]1C [Example I-1243]
IC50 (BRD4 BD2): 50 to 500 nM | IC50 (BRD4 BD1): 100 to 1000 nM | IC50 (MV4-11 cells): 100 to 500 nM

CC(=O)N1c2ccc(-c3cccc(S(=O)(=O)C4CC4)c3)cc2N(C(=O)OC2CCOCC2)C[C@@H]1C [Example I-1244]
IC50 (BRD4 BD2): 50 to 500 nM | IC50 (BRD4 BD1): 100 to 1000 nM | IC50 (MV4-11 cells): 100 to 500 nM

CCS(=O)(=O)c1cccc(-c2ccc3c(c2)N(C(=O)OC2CCCCC2)C[C@H](C)N3C(C)=O)c1 [Example I-1245]
IC50 (BRD4 BD2): 50 to 500 nM | IC50 (BRD4 BD1): 100 to 1000 nM | IC50 (MV4-11 cells): 100 to 500 nM

CCS(=O)(=O)c1cccc(-c2ccc3c(c2)N(C(=O)OC2CCOCC2)C[C@H](C)N3C(C)=O)c1 [Example I-1246]
IC50 (BRD4 BD2): 50 to 500 nM | IC50 (BRD4 BD1): 100 to 1000 nM | IC50 (MV4-11 cells): 100 to 500 nM

CC(=O)N1c2ccc(-c3cc(Cl)cc(S(C)(=O)=O)c3)cc2N(C(=O)OC2CCCCC2)C[C@@H]1C [Example I-1247]
IC50 (BRD4 BD2): > 500 nM | IC50 (BRD4 BD1): 1000 to 10000 nM | IC50 (MV4-11 cells): > 500 nM

CC(=O)N1c2ccc(-c3cc(Cl)cc(S(C)(=O)=O)c3)cc2N(C(=O)OC2CCOCC2)C[C@@H]1C [Example I-1248]
IC50 (BRD4 BD2): > 500 nM | IC50 (BRD4 BD1): 100 to 1000 nM | IC50 (MV4-11 cells): 100 to 500 nM

CC(=O)N1c2ccc(-c3ccc(F)c(S(C)(=O)=O)c3)cc2N(C(=O)OC2CCCCC2)C[C@@H]1C [Example I-1249]
IC50 (BRD4 BD2): 50 to 500 nM | IC50 (BRD4 BD1): 1000 to 10000 nM | IC50 (MV4-11 cells): 100 to 500 nM

CC(=O)N1c2ccc(-c3ccc(F)c(S(C)(=O)=O)c3)cc2N(C(=O)OC2CCOCC2)C[C@@H]1C [Example I-1250]
IC50 (BRD4 BD2): > 500 nM | IC50 (BRD4 BD1): 1000 to 10000 nM | IC50 (MV4-11 cells): > 500 nM

CC(=O)N1c2ccc(-c3ccc(OCCS(C)(=O)=O)cc3)cc2N(C(=O)OC2CCCCC2)C[C@@H]1C [Example I-1251]
IC50 (BRD4 BD2): 50 to 500 nM | IC50 (BRD4 BD1): 100 to 1000 nM | IC50 (MV4-11 cells): 100 to 500 nM

CC(=O)N1c2ccc(-c3ccc(OCCS(C)(=O)=O)cc3)cc2N(C(=O)OC2CCOCC2)C[C@@H]1C [Example I-1252]
IC50 (BRD4 BD2): 50 to 500 nM | IC50 (BRD4 BD1): 100 to 1000 nM | IC50 (MV4-11 cells): 100 to 500 nM

CNS(=O)(=O)c1cccc(-c2ccc3c(c2)N(C(=O)OC2CCCCC2)C[C@H](C)N3C(C)=O)c1 [Example I-1253]
IC50 (BRD4 BD2): 50 to 500 nM | IC50 (BRD4 BD1): 100 to 1000 nM | IC50 (MV4-11 cells): 100 to 500 nM

CNS(=O)(=O)c1cccc(-c2ccc3c(c2)N(C(=O)OC2CCOCC2)C[C@H](C)N3C(C)=O)c1 [Example I-1254]
IC50 (BRD4 BD2): 50 to 500 nM | IC50 (BRD4 BD1): 100 to 1000 nM | IC50 (MV4-11 cells): < 100 nM

CC(=O)N1c2ccc(-c3cccc(S(=O)(=O)NCCO)c3)cc2N(C(=O)OC2CCCCC2)C[C@@H]1C [Example I-1255]
IC50 (BRD4 BD2): 50 to 500 nM | IC50 (BRD4 BD1): 100 to 1000 nM | IC50 (MV4-11 cells): 100 to 500 nM

CC(=O)N1c2ccc(-c3cccc(S(=O)(=O)NCCO)c3)cc2N(C(=O)OC2CCOCC2)C[C@@H]1C [Example I-1256]
IC50 (BRD4 BD2): 50 to 500 nM | IC50 (BRD4 BD1): 100 to 1000 nM | IC50 (MV4-11 cells): 100 to 500 nM

CCN(CC)S(=O)(=O)c1cc(-c2ccc3c(c2)N(C(=O)OC2CCCCC2)C[C@H](C)N3C(C)=O)ccc1OC [Example I-1257]
IC50 (BRD4 BD2): 50 to 500 nM | IC50 (BRD4 BD1): 100 to 1000 nM | IC50 (MV4-11 cells): 100 to 500 nM

CCN(CC)S(=O)(=O)c1cc(-c2ccc3c(c2)N(C(=O)OC2CCOCC2)C[C@H](C)N3C(C)=O)ccc1OC [Example I-1258]
IC50 (BRD4 BD2): 50 to 500 nM | IC50 (BRD4 BD1): 100 to 1000 nM | IC50 (MV4-11 cells): 100 to 500 nM

CC(=O)N1c2ccc(-c3ccc(S(=O)(=O)n4cccn4)cc3)cc2N(C(=O)OC2CCCCC2)C[C@@H]1C [Example I-1259]
IC50 (BRD4 BD2): 50 to 500 nM | IC50 (BRD4 BD1): 100 to 1000 nM | IC50 (MV4-11 cells): 100 to 500 nM

CC(=O)N1c2ccc(-c3ccc(S(=O)(=O)n4cccn4)cc3)cc2N(C(=O)OC2CCOCC2)C[C@@H]1C [Example I-1260]
IC50 (BRD4 BD2): 50 to 500 nM | IC50 (BRD4 BD1): 100 to 1000 nM | IC50 (MV4-11 cells): > 500 nM

CNS(=O)(=O)c1ccc(-c2ccc3c(c2)N(C(=O)OC2CCCCC2)C[C@H](C)N3C(C)=O)cc1 [Example I-1261]
IC50 (BRD4 BD2): 50 to 500 nM | IC50 (BRD4 BD1): 100 to 1000 nM | IC50 (MV4-11 cells): 100 to 500 nM

CNS(=O)(=O)c1ccc(-c2ccc3c(c2)N(C(=O)OC2CCOCC2)C[C@H](C)N3C(C)=O)cc1 [Example I-1262]
IC50 (BRD4 BD2): 50 to 500 nM | IC50 (BRD4 BD1): 100 to 1000 nM | IC50 (MV4-11 cells): 100 to 500 nM

CC(=O)N1c2ccc(-c3ccc(S(=O)(=O)N(C)C)cc3)cc2N(C(=O)OC2CCCCC2)C[C@@H]1C [Example I-1263]
IC50 (BRD4 BD2): 50 to 500 nM | IC50 (BRD4 BD1): 100 to 1000 nM | IC50 (MV4-11 cells): 100 to 500 nM
